In patent publication US20120270935A1, “FORMULATIONS” (priority 2009, published 2012) one finds MIC and DDA zone diameter data, which are given here for one compound.

One experiment relates to P. granulosum. The experiment in a line: Agar dilution MIC assay, panel of propionibacterium strains. In kind it is cell-based, Propionibacterium granulosum. As to conditions: resistance MLSK. As for the experimental part:
This is a standard international method for quantitatively assessing the antimicrobial activity of a compound in a solid medium. The test compound was prepared to 40× the highest concentration required (eg 10 mg/ml for a final concentration of […]) and a series of doubling dilutions were performed in a suitable solvent. A set amount of these antimicrobial stock solutions was then added to molten agar medium (ca 55° C.), mixed thoroughly, poured into sterile Petri dishes and allowed to cool/set. The culture medium was as described above.
A Multipoint™ Inoculator (AQS Manufacturing Ltd, UK) was used to inoculate the plates by spotting the inocula onto the surface of the agar, delivering approximately 1 to 2 μl per spot (yielding 10^5 CFU (colony forming units) per spot).
The plate(s) were then incubated under the conditions described above, following which they were examined visually for signs of bacterial growth. The MIC value was ascertained when there was a marked reduction in, or total loss of, growth on the test plate at the lowest concentration as compared to that of the growth on the control plate.
The assays were conducted in triplicate and included a positive control (culture medium, diluting solvent and inoculum).
The activity (MIC by agar dilution) of copper usnate was determined against a panel of different propionibacterium strains. […]

Experiment [1] relates to S. epidermidis NCTC 11047. The experiment in a line: MIC assay. As to conditions: Mueller-Hinton broth pH 7.0. The format is cell-based, Staphylococcus epidermidis. An excerpt:
(§1) (a) staphylococci. The Staphylococcus aureus strain used was ATCC 29213. S. aureus and other staphylococci are common causes of a wide range of skin, skin structure and wound infections; S. aureus is also known to exacerbate eczema. The ATCC 29213 strain is known to be susceptible to beta-lactam antibiotics such as methicillin. The Staphylococcus epidermidis strain used was NCTC 11047. Staph. epidermidis forms part of the resident flora of skin and is an opportunistic pathogen which can cause biofilms to grow for instance on plastic surgical implants such as catheters. […]
This is a standard international method for quantitatively assessing the antimicrobial activity of a compound in a liquid medium. […]
The wells were inoculated with a liquid suspension of freshly grown micro-organism and incubated under the conditions described above. […] The MIC value was recorded as the lowest concentration of test compound required to inhibit microbial growth, ie the lowest concentration for which the liquid in the well remained clear. […]
(§2) Example 8 was repeated (except for the supplemented DDA assays), using S. aureus ATCC 29213 as the test organism. […] In the DDA assays, 200 μg is of each compound was loaded onto each disc: the culture medium was Mueller-Hinton agar at pH 7.0, and results were recorded after overnight incubation at 37° C. in air. […]

For experiment [2], the system named is S. epidermidis NCTC 11047. Put plainly: Disc diffusion assay (DDA). The format is cell-based, Staphylococcus epidermidis. As to conditions: 200 μg per disc; Mueller-Hinton agar pH 7.0; overnight at 37° C. in air.
Description: as §1, with “catheters. Unless otherwise stated, the staphylococci were cultured and maintained on Mueller-Hinton Medium (agar and broth) at pH 7.2; cultures were incubated aerobically at 37° C. for 19-20 hours, at pH 7 (±0.2). (b) C. striatum NCTC 764.” for “catheters.”
A sterile paper disc was impregnated with a sample of the test compound in a suitable solvent and 30 minutes allowed for the solvents to evaporate (where possible). […] The diameter of this zone of “inhibition” was measured using a ProtoCOL™ automated zone sizer (Synbiosis, Cambridge, UK). […]
as §2

SMILES strings stand for the structures.

As to `CC(=O)c1c([O-])c(C)c([O-])c2c1OC1=CC(=O)C(C(C)=O)C(=O)C12C.[Cu+2]` (stereo not shown) [Copper usnate, copper (II) usnate], the minimum inhibitory concentration (MIC) against P. granulosum (P. granulosum PRP-005, Erm X) was 1.95 µg/mL; against P. granulosum (P. granulosum PRP-019, Erm X), 1.95 µg/mL; in experiment [1] it was 0.98 µg/mL. In addition, in experiment [2], the DDA zone diameter is 25.7 ± 0.6 mm.
